In patent US11634452B2, “Compounds for treating neurodegenerative disorders” (ETHNODYNE, priority 2017, dated 2023):

Tested on: primary cocultures of central neurons and oligodendrocytes
Test: In vitro MS (myelination) model
Format: cell-based, rat
Experimental: A reproducible in vitro myelination model based on primary cocultures of central neurons and oligodendrocytes culturing in 96-well plate is used and adapted to high throughput screening.
Neurons/oligodendrocytes were cultured as previously described by Charles et al., 2000. PNAS 97 7585-7590.
Briefly, pregnant Wistar female rats of 17 days gestation were killed by cervical dislocation (Janvier Labs, France) and the foetuses removed from the uterus. The forebrains were removed and placed in ice-cold medium of Leibovitz (L15; Pan Biotech, Germany) containing 2% of Penicillin-Streptomycin (Batch 1451013, PanBiotech) and 1% of bovine serum albumin (BSA) (Batch K180713, Pan Biotech). Cortexes were dissociated by trypsinisation for 20 min at 37° C., with Trypsin EDTA 1× (Batch 7310713, PanBiotech). The reaction was stopped by the addition of Dulbecco's modified Eagle's medium (DMEM) (Batch 9710913, PanBiotech) containing DNAase I grade II at 0.1 mg/mL (Batch H131108, PanBiotech) and 10% of foetal calf serum (Batch 41Q7218K, Invitrogen, France). Cells were then mechanically dissociated by 3 passages through a 10 mL pipette. Cells were centrifuged at 180×g for 10 min at 4° C. temperature on a layer of BSA (3.5%) in L15 medium. The supernatant was discarded and cells of the pellet were re-suspended in DMEM containing 10% of FCS. […] The supernatant was discarded and cells of pellet were re-suspended in a culture medium consisting of Neurobasal (Batch 1625353, Invitrogen) supplemented with 2% of B27 (Batch 1618508, Invitrogen), 2 mM of L-glutamine (Batch 6620314, PanBiotech), 2% of PS solution, 1% of foetal calf serum (FCS) and 10 ng/mL of platelet-derived growth factor (PDGF-AA) (Batch H131205, PanBiotech).
The plates were maintained at 37° C. in a humidified incubator, in an atmosphere of air (95%)-CO2 (5%). Half of the medium was changed every 2 days with fresh medium in presence or absence of compound.
Plate 1 for Day 12 (A2B5) and plate 2 for Day 18 (MAG evaluation) • Control (vehicle) • Compound CR777 of example 1 (1 pmol/L) • Compound CR777 of example 1 (10 pmol/L) • Compound CR777 of example 1 (100 pmol/L) • Compound CR777 of example 1 (1 nmol/L) • Compound CR777 of example 1 (10 nmol/L) • Compound CR777 of example 1 (100 nmol/L) • Compound CR777 of example 1 (1 μmol/L) • Compound CR777 of example 1 (10 μmol/L)
The cells were then permeabilized and non-specific sites were blocked with a solution of phosphate buffered saline (Batch 3010914, PanBiotech) containing 0.1% of saponin (Batch BCBJ8417V, Sigma) and 1% FCS for 15 min at room temperature.
On day 12, cells were incubated with Monoclonal Anti-A2B5 conjugated Alexa Fluor® 488 produced in mouse (Batch 2281669, Millipore, France) at dilution of 1/200 in PBS containing 1% FCS, 0.1% saponin, and with anti-MAP-2 antibody produced in chicken (Batch GR180541-3, AbCam; United Kingdom) at dilution of 1/1000 in PBS containing 1% FCS, 0.1% saponin for 2 h at room temperature. […]
The immunolabeled cultures were automatically examined with ImageXpress (Molecular Devices) equipped with a LED at ×20 magnification. […] Number of A2B5 positive cells and number of MAG positive cells were automatically analyzed by using Custom module editor (Molecular Devices). […] All values were expressed as mean+/−SEM (s.e.mean) of the 6 wells. […]

[1] = 18 days of treatment, significant from 1 pmol/L up to 1 μmol/L, not at 10 μM

CC1=C(CO)C(=O)O[C@@H]([C@@H](C)[C@H]2CCC3C4C[C@H](SC[C@H](NC(=O)CC[C@@H](N)C(=O)O)C(=O)NCC(=O)O)[C@]5(O)[C@@H](O)C=CC(=O)[C@]5(C)C4CC[C@@]32C)C1 (some centres unmarked) [CR777] was tested, and the “OPC (precursor cells of oligodendrocytes) number, A2B5 positive cells” value (12 days treatment, 1 pmol/L to 10 μmol/L) was “did not show any significant increase”, the “total number of OPCs” value (12 days treatment, at the highest doses) was “decrease of the total number of OPCs” and the “maximal effect on MAG, increase vs control” value (18 days of treatment, all doses) was roughly 60%. The “myelination of neurons by OL (area of MAG expression)” value [1] was “significantly improved” and the “number of MAG positive cells (OL)” value [1] was “able to increase the number of MAG positive cells”.
